{"source": "patent EP0927178B1", "about": "“TRICYCLIC COMPOUNDS USEFUL FOR INHIBITION OF G-PROTEIN FUNCTION AND FOR TREATMENT OF PROLIFERATIVE DISEASES” (SCHERING CORPORATION, priority 1996, dated 1998)", "tested_on": "COS Cell", "test": "COS Cell IC50 (Cell-Based Assay)", "conditions": "procedure of WO 95/10516", "experimental": "FPT IC50 (inhibition of farnesyl protein transferase, in vitro enzyme assay) and COS Cell IC50 (Cell-Based Assay) were determined following the assay procedures described in WO 95/10516, published April 20, 1995. GGPT IC50 (inhibition of geranylgeranyl protein transferase, in vitro enzyme assay), Cell Mat Assay, and anti-tumor activity (in vivo anti-tumor studies) could be determined by the assay procedures described in WO 95/10516. The disclosure of WO 95/10516 is incorporated herein by reference thereto.", "note": "pIC50: −log10 of the molar value."}
{"smiles": "NC(=O)N1CC[C@@H](CC(=O)N2CCC(C3c4ncc(Br)cc4CCc4cc(Cl)cc(Cl)c43)CC2)C1", "note": "(stereo partly drawn) [Example 2, 3(S) -[2-(4-(3-bromo-8,10-dichloro-6-11-dihydro-5-H-benzo[5,6]-cyclohepta[1,2-b]pyridin-11-yl)-1-piperidinyl]-2-oxoethyl]-1-pyrrolidinecarboxamide]", "values": [{"measurement": "pIC50", "result": 7.52}]}
